Experimental data: article PMC4552634, “A New Set of Chemical Starting Points with Plasmodium falciparum Transmission-Blocking Potential for Antimalarial Drug Discovery” (PLoS ONE, 2015)
Like-named read-outs stand apart in the source and are kept apart here.

How the values were obtained:
[1] = tested on: P. falciparum stage V gametocytes; test: Gametocytocidal ATP bioluminescence assay (single point 5 μM and 1 μM, dose-response); assay type: cell-based, Plasmodium falciparum; conditions: for Ratio IC50 HepG2/IC50 P. falciparum: IC50 HepG2 divided by IC50 P. falciparum gametocytes
[2] = tested on: luciferase reaction (BacTiter-Glo); test: Interference assay (inhibition of the BacTiter-Glo luciferase reaction); assay type: biochemical; parameters: concentration or dose not given beside the values; conditions: ATP interference assay
Experimental: To discard possible false-positive results, we performed an interference assay in parallel. […] […]. The ATP solution was made by dissolving ATP powder (ATP standard from the ATPlite 1 step assay kit, reference 6016731, Perkin Elmer) in culture medium. The positive control used was the Luciferase Inhibitor I Calbiochem (Merck, 119113) at 100 μM.

HepG2 cells = test: Cytotoxicity in HepG2 cells (intracellular ATP, ATPlite, 48 h); assay type: cell-based, human; conditions: HepG2 cells; IC50 per ratio column head; unit inferred
[3] = tested on: P. falciparum asexual stages; conditions: TCAMS data, cited from earlier work
[4] = P. falciparum gametocytes, average, read-out: IC50 Pf Gametocytes average, IC50 (µM) average
[5] = sexual stages (gametocytes), dose-response, read-out: IC50 sexual
[6] = asexual stages, read-out: IC50 asexual
[7] = Plasmodium falciparum, P. falciparum gametocytes, average, read-out: IC50 Pf Gametocytes average, IC50 (µM) average

Row | Compound | % Control luminiscence [2] | Ratio IC50 HepG2/IC50 P. falciparum [1] | IC50 [1, 4] | IC50 [1, 5] | IC50 (HepG2 cells) | IC50 [3, 6] | IC50 [1, 7] | IC50 ([1]; Plasmodium falciparum, sexual stages (gametocytes), dose-response, read-out: IC50 sexual) | IC50 ([3]; P. falciparum asexual stages, read-out: IC50 (µM) Pf asexual stages)
1 | O=C(Nc1cccc(-c2cccc(-c3ccc(F)cc3)n2)c1)c1ccc([N+](=O)[O-])o1 [TCMDC-124807] | 100% | 4.55 | 1.53 µM | 1.53 µM | 6940 nM | 0.361 µM | – | – | –
2 | Cc1nn(CC(C)C)c2sc(C(=O)N3CCN(S(=O)(=O)c4ccc(C#N)cc4)CC3)cc12 [TCMDC-125045] | 92% | >12 | 2.09 µM | 2.09 µM | > 25000 nM | 0.739 µM | – | – | –
3 | CN(C)c1ccc2c(c1)Sc1cc(N(C)C)ccc1N2C(=O)CCCC(=O)O [TCMDC-125778] | 100% | – | > 5 µM | – | > 25000 nM | 0.802 µM | – | – | –
4 | COc1ccc2nc(-c3cccc(C)n3)nc(Nc3ccncc3)c2c1 [TCMDC-134670] | 100% | – | 2.51 µM | – | > 25000 nM | 0.669 µM | – | – | –
5 | Cc1cc(OCCN2CCCCC2)ccc1NC(=O)c1cccc2c(=O)n(Cc3ccc(Cl)cc3)cnc12 [TCMDC-136727] | 97% | 5 | 0.95 µM | – | 4730 nM | 1.05 µM | – | – | –
6 | c1ccc2c(C3CCN(CCCCOc4ccc5c(c4)CCN(CC4CC4)CC5)CC3)c[nH]c2c1 [TCMDC-136244] | 100% | 10 | 0.71 µM | – | 6810 nM | 0.982 µM | – | – | –
7 | N=c1n(Cc2ccc(Cl)cc2)c2ccccc2n1CC(O)c1ccc(Cl)c(Cl)c1 (stereo not shown) [TCMDC-123813] | 99% | 18 | 0.36 µM | 0.357 µM | 6500 nM | 0.677 µM | – | – | –
8 | Nc1nc(N)c2c(ccc3c2ccn3Cc2ccc(-c3ccccc3)cc2)n1 [TCMDC-137813] | 100% | 1.1 | 1.45 µM | 1.45 µM | 1600 nM | 0.048 µM | – | – | –
9 | O=C(Nc1ccc2c(c1)CCCN2S(=O)(=O)c1cccs1)c1cc([N+](=O)[O-])ccc1Cl [TCMDC-125153] | 100% | >9 | 2.66 µM | 2.66 µM | > 25000 nM | 0.845 µM | – | – | –
10 | CN(C)S(=O)(=O)c1cc(-c2ccc3nccc(-c4cccc(S(N)(=O)=O)c4)c3c2)cnc1N [TCMDC-134230] | 100% | <1.5 | > 10 µM | – | 14800 nM | 0.251 µM | – | – | –
11 | CC(C)(C)OC(=O)NCc1ccc(Nc2nnc(-c3ccc(OCC(=O)NCc4ccc(C(C)(C)C)cc4)c([N+](=O)[O-])c3)o2)cc1 [TCMDC-134991] | 100% | 4.5 | 0.7 µM | – | 3150 nM | 0.8 µM | – | – | –
12 | N=c1n(CCN2CCCCC2)c2ccccc2n1CC(O)c1ccc(Cl)c(Cl)c1 (stereo not shown) [TCMDC-124064] | 100% | 1.59 | 3.27 µM | 3.27 µM | 5200 nM | 0.32 µM | – | – | –
13 | c1ccc(CSC2=NNC(c3ccccn3)S2)cc1 (stereo not shown) [TCMDC-123769] | 100% | >3 | 7.98 µM | 7.98 µM | > 25000 nM | 1.48 µM | – | – | –
14 | CCN(CC)CCCNc1nccc(N2CCc3ncnc(Nc4ccc(OCc5cccc(F)c5)c(Cl)c4)c3C2)n1 [TCMDC-135406] | 100% | 8 | 0.72 µM | 0.715 µM | 5580 nM | 0.111 µM | – | – | –
15 | O=C(Nc1ccc(N2CCNCC2)cc1)c1ccn2ncc(-c3cccc(Cl)c3)c2n1 [TCMDC-132663] | 95% | 6.35 | 3.5 µM | – | 22200 nM | 0.922 µM | – | – | –
16 | C[C@H](Cc1ccc(C[C@@H](C)NC[C@H](O)c2cccc(Cl)c2)cc1)NC[C@H](O)COc1ccccc1 [TCMDC-131549] | 100% | 5 | 0.92 µM | 0.923 µM | 4700 nM | 1.17 µM | – | – | –
17 | COc1ccc(-c2cc(-c3ccc(S(C)(=O)=O)cc3)cnc2N)cn1 [TCMDC-133351] | 100% | – | – | – | – | 0.187 µM | 1.18 µM | 1.18 µM | 0.19 µM
18 | Cc1ccc(Nc2nc(-c3ccccn3)cs2)nc1 [TCMDC-125854] | 100% | – | – | 0.159 µM | – | 0.752 µM | 0.16 µM | – | –

Continued, in another order:

Row | % Control luminiscence [2] | Compound | Ratio IC50 HepG2/IC50 P. falciparum [1] | IC50 [1, 4] | IC50 [1, 5] | IC50 (HepG2 cells) | IC50 [3, 6] | IC50 [1, 7] | IC50 ([1]; Plasmodium falciparum, sexual stages (gametocytes), dose-response, read-out: IC50 sexual) | IC50 ([3]; P. falciparum asexual stages, read-out: IC50 (µM) Pf asexual stages)
19 | 100% | CN1CCN(CCCNCc2cccc(Nc3nccc(Nc4ccc(Oc5ccccc5)cc4)n3)c2)CC1 [TCMDC-138616] | 16 | 0.32 µM | – | 5170 nM | 0.765 µM | – | – | –
20 | 95% | CN1CCC(C(=O)N(Cc2ccc(-c3ccc(CNCCc4ccccc4)cn3)cc2)C2CCN(Cc3ccccc3)CC2)CC1 [TCMDC-141552] | 10 | 0.9 µM | 0.897 µM | 9270 nM | 0.787 µM | – | – | –
21 | 100% | O=C(Nc1cccc(Oc2ccccc2)c1)N[C@H]1CCN(Cc2ccc(OCCCN3CCCCC3)cc2)C1 [TCMDC-141785] | 3 | 1.13 µM | – | 3520 nM | 0.724 µM | – | – | –
22 | 95% | COc1ccc(CCNCCCCNCCc2ccc(OC)c3ccccc23)c2ccccc12 [TCMDC-137961] | <0.6 | > 5 µM | – | 3140 nM | 0.453 µM | – | – | –
23 | 100% | CCCCC(NCC)c1ccc(OCCOc2ccc(C(CCCC)NCC)cc2)cc1 (stereo not shown) [TCMDC-137612] | 14 | 0.42 µM | 0.423 µM | 6100 nM | 0.93 µM | – | – | –
24 | 93% | O=C(Nc1ccc(Oc2ccccc2)cc1)N(CCN1CCCC1)Cc1ccc(-c2ccc(CN3CCNCC3)cc2)cc1 [TCMDC-139652] | 7 | 1.02 µM | 1.01 µM | 7080 nM | 0.892 µM | – | – | –
25 | 98% | CC(Cc1ccc(CNC(=O)c2ccc(CC(C)NCCc3cccc(Cl)c3)cc2)cc1)NCCc1cccc(Cl)c1 (stereo not shown) [TCMDC-139659] | 5.53 | 0.57 µM | – | 3150 nM | 0.696 µM | – | – | –
26 | 85% | COc1cc2c(cc1CCNCCCCNCCc1cc3c(cc1OC)CCCC3)CCCC2 [TCMDC-137319] | <19 | 0.08 µM | 0.084 µM | < 1560 nM | 0.996 µM | – | – | –
27 | 100% | CCCCCCC(N)c1ccc(OCCCOc2ccc(C(N)CCCCCC)cc2)cc1 (stereo not shown) [TCMDC-137621] | 36 | 0.0533 µM | 0.053 µM | 1900 nM | 1.14 µM | – | – | –
28 | 100% | Cc1cc(F)ccc1-c1nc(NCC(O)CNCCc2ccccc2)nc2c1ccc(=O)n2-c1c(F)cccc1F (stereo not shown) [TCMDC-141784] | 37 | 0.23 µM | – | 8470 nM | 0.539 µM | – | – | –
